Assay results: patent US12379386B2, “Antibodies to 25-hydroxyvitamin D2 and D3 for detecting total 25-hydroxyvitamin D” (Siemens Healthcare Diagnostics Inc., priority 2011, dated 2025)
Several values for one entry are separate records, joined by “and”; a condition that tells them apart may be missing. Equal values may be shown once.

Key:
[1] = system: anti 25-hydroxy Vitamin D monoclonal antibody labeled with acridinium ester (monoclonal antibody 10H9); assay: Cross-reactivity in ADVIA Centaur Vitamin D Total assay; type: binding, mouse
Description: Biological sample is added to a reaction cuvette followed by displacement buffer and allowed to react for 4.5 minutes. Monoclonal antibody conjugated to acridinium ester is added and allowed to react for 5.5 minutes to bind 25-hydroxyvitamin D in the sample. […] The reaction cuvette is washed, and acid and base reagents are added to initiate the chemiluminescent reaction. The time-to-result is 18 minutes. An inverse relationship exists between the amount of 25-hydroxyvitamin D in the patient sample and the amount of relative light units (RLUs) detected by the system.
Assay: The ADVIA Centaur Vitamin D Total assay is a one-pass, 18-minute antibody competitive immunoassay that uses an antifluorescein-labeled monoclonal antibody covalently bound to paramagnetic particles (PMPs), one monoclonal antibody labeled with acridinium ester (AE), and a vitamin D analog labeled with fluorescein (FIG. 8). The Vitamin D Total assay requires 20 μL of sample volume for a single determination. The time-to-first-result is 18 minutes and the throughput is 240 tests/hour.
Briefly, the first step of the sequential step hapten/antibody competitive immunoassay using chemiluminescent technology begins with the analyzer dispensing 20 μL of biological sample into a cuvette followed by addition of 200 μl of displacement buffer (50 mM HEPES, 150 mM NaCl, 0.09% sodium azide, pH=7.5) containing 8-anilino-1-naphthalenesulfonic acid ammonium salt (Sigma-aldrich, St. Louis, MO) and ethylene glycol (Sigma-aldrich, St. Louis, MO) and incubation for 4.5 minutes at 37° C. Lite Reagent (50 μL) containing an anti 25-hydroxy Vitamin D monoclonal antibody labeled with acridinium ester (monoclonal antibody 10H9) is added to the mixture and incubated for 5.5 min at 37° C. C22-PEG-BSA-fluorescein conjugate (50 μL) and anti-fluorescein monoclonal antibody coated paramagnetic microparticles (100 μL) are added to the mixture and incubated for 3.75 minutes at 37° C. The fourth step is separation of Solid Phase complex with bound C22-PEG-BSA-fluorescein conjugate and anti 25-hydroxy vitamin D monoclonal antibody labeled with acridinium ester, followed by washing three times to remove any free Lite Reagent. Last is the sequential dispensing of 300 μL each of acid reagent then base reagent to initiate the chemiluminescent reaction. The total incubation time from sample to result is 18 minutes. There is an indirect relationship between the amount of 25-hydroxy vitamin D present in the biological sample and the amount of chemiluminescence quantified as relative light units (RLUs). In the Centaur-based assay, there is an inverse relationship between RLUs emitted by the acridinium ester and the amount of vitamin D because the 25-hydroxyvitamin D released from the carrier protein in the plasma competes with the Vitamin D-BSA-Fluorescein for binding with a limited amount of the acridinium-labeled 10H9 monoclonal antibody. Higher levels of 25(OH)D in the patient sample would lower the amount of the acridinium-MAb-VitD-BSA-Fluorescein complex on the magnetic particles resulting in lower RLUs.
Cross-reactivity: Five vitamin D derivatives were analyzed using the ADVIA Centaur Vitamin D Total assay. The vitamin D derivatives were spiked into a sample containing 27 ng/mL of vitamin D total. Three replicates of the spiked samples were assayed and the vitamin D total concentration determined.

BALB/c mice = assay: ELISA of sera from mice immunized with vitamin D-C22 BSA; type: in vivo, mouse; conditions: coat Vit D C22 Lc-BSA 500 ng/mL, individual mice 0-4 in c3-c7
Description: Experiments were conducted to produce antibodies that could preferentially bind to molecules having structural aspects of the vitamin D-C22 antigenic molecule. These experiments were conducted in accordance with the method of Galfre et al. (Nature, 266:550 (1977)), as modified by Oi and Herzenberg (Selected Methods in Cellular Immunology (1980)). Initially, BALB/c mice were immunized with vitamin D-C22 BSA emulsified in Freund's Complete adjuvant followed by a secondary immunization using Freund's Incomplete adjuvant. Sera of immunized mice were collected two weeks after the secondary immunization.
Collected sera were tested for antigen reactivity by ELISA as follows: microtiter plates coated with vitamin D-C22 BSA were incubated with mouse antisera, diluted in dilution buffer, for one hour. Plates were washed and a secondary antibody (goat-anti-mouse IgG) conjugated to horseradish peroxidase (HRPO) in dilution buffer was added and incubated for 30 minutes. Plates were washed and the colorimetric substrate 3,3′,5,5′-tetramethylbenzidine (TMB) was added. The generated color was stopped using 1N sulfuric acid and the optical density was measured at 450 nm.

[2] = crossreactant 100 ng/mL spiked, expected (endogenous) vitamin D total 27 ng/mL

Compound: C=C1CC[C@H](O)C/C1=C/C=C1\CCC[C@]2(C)[C@@H]([C@H](C)CCCC(C)(C)O)CC[C@@H]12 [25-(OH)-Vit D3, 25-hydroxyvitamin D3]
- Cross-reactivity ([1]; crossreactant 27 ng/mL, expected (endogenous) vitamin D total 0 ng/mL): 100%

Compound: C=C1CC[C@H](O)C/C1=C/C=C1\CCC[C@]2(C)[C@@H]([C@H](C)CCCC(C)C)CC[C@@H]12 [Vitamin D3]
- Cross-reactivity (in words) [1]: very low cross-reactivity
- Cross-reactivity [1, 2]: 0.04%

Compound: C=C1CC[C@@H](O)C/C1=C/C=C1\CCC[C@]2(C)[C@@H]([C@H](C)CCCC(C)(C)O)CC[C@@H]12 [3-epi-25(OH)D3]
- Cross-reactivity (in words) [1]: very low cross-reactivity
- Cross-reactivity [1, 2]: 0.0%

Compound: C=C1CC[C@H](O)C/C1=C/C=C1\CCC[C@]2(C)[C@@H]([C@H](C)/C=C/[C@H](C)C(C)(C)O)CC[C@@H]12 [25-(OH)-Vit D2, 25-hydroxyvitamin D2]
- Cross-reactivity ([1]; at 50 ng/mL): 105%
- Cross-reactivity ([1]; crossreactant 30 ng/mL spiked, expected (endogenous) vitamin D total 27 ng/mL): 102%

Compound: vitamin D-C22 diaminobutane-suberoyl-BSA [Vit D C22]
- optical density at 450 nm (BALB/c mice; serum dilution 1:100): 3.747 and 3.687 and 3.625 and 3.700 and 3.652
- optical density at 450 nm (BALB/c mice; serum dilution 1:200): 3.750 and 3.693 and 3.649 and 3.663 and 3.634
- optical density at 450 nm (BALB/c mice; serum dilution 1:400): 3.602 and 3.640 and 3.633 (2×) and 3.441
- optical density at 450 nm (BALB/c mice; serum dilution 1:800): 3.634 and 3.731 and 3.603 and 3.708 and 3.696
- optical density at 450 nm (BALB/c mice; serum dilution 1:1600): 3.578 and 3.605 and 3.532 and 3.638 and 3.687
- optical density at 450 nm (BALB/c mice; serum dilution 1:3200): 3.534 and 3.508 and 3.171 and 3.454 and 3.608
- optical density at 450 nm (BALB/c mice; serum dilution 1:6400): 3.177 and 3.133 and 2.533 and 3.057 and 3.473
- optical density at 450 nm (BALB/c mice; serum dilution 1:12800): 2.449 and 2.406 and 1.731 and 2.325 and 3.042

Compound: C=C1CC[C@H](O)C/C1=C/C=C1\CCC[C@]2(C)[C@@H]([C@H](C)/C=C/[C@H](C)C(C)C)CC[C@@H]12 [Vitamin D2]
- Cross-reactivity (in words) [1]: very low cross-reactivity
- Cross-reactivity [1, 2]: 0.04%
